Literature values in patent US9945862B2, “Biomarkers for predicting and assessing responsiveness of thyroid and kidney cancer subjects to lenvatinib compounds” (Eisai R&D Management Co., Ltd., priority 2011, dated 2018).

Tested on: xenograft models of various tumors
Settings: by inhibiting angiogenesis; cited from earlier work

COc1cc2nccc(Oc3ccc(NC(=O)NC4CC4)c(Cl)c3)c2cc1C(N)=O [Lenvatinib, 4-(3-chloro-4(cyclopropylaminocarbonyl)aminophenoxy)-7-methoxy-6-quinolinecarboxamide]
Anti-tumor effect: potent anti-tumor effects
